Laboratory results published in PubChem BioAssay AID504638 (National Center for Advancing Translational Sciences (NCATS), 2011).

Tested on: mouse liver microsomes, stability LC-MS/MS, 1 uM
Test: Inhibitors of HPGD: Mouse Liver Microsome Profiling
Settings: at 1 µM, hits give high values

| half-life [min] | Compound |
| --- | --- |
| 8 | Cc1cc(-c2nnc3n2CCCCC3)c(C)n1-c1ccccc1 |
| 9 | Cc1cccc(-n2cnc3cc(C(=O)N4CCCCC4)ccc32)c1 |
